Test system: Plasmodium berghei
Test: Luciferase/luciferin-expressing antifolate-resistant parasites were used to infect a culture of HepG2 cells that were pre-incubated with compounds. Infected hepatocytes emit light due to the luciferase reaction. Assay results are presented as the percent inhibition of light emission compared to control. […]
Type: functional
Conditions: sporozoite; for IC90: read-out: LUCIFERASE INFECTION ASSAY - IC90
[1] = read-out: LUCIFERASE INFECTION ASSAY - IC50

## Cc1cc(C(=O)/C(C#N)=N/Nc2ccc(Cl)cc2)n(C(C)(C)C)n1
HEPG2TOX_HILL_SLOPE 0.671, HEPG2TOX_R_SQUARED 0.767, PBLUC_HILL_SLOPE 2.12, PBLUC_R_SQUARED 0.724, read-out: LUCIFERASE INFECTION ASSAY - IC50
  IC50: 2.56 µM
  IC90: 7.21 µM

## CCC(C)CNc1cc(C(=O)Nc2cccc(OC)c2)cc(S(=O)(=O)N2CCCC2)c1 (centres undefined)
HEPG2TOX_HILL_SLOPE 12.2, HEPG2TOX_R_SQUARED 0.774, PBLUC_HILL_SLOPE 2.54, PBLUC_R_SQUARED 0.165, read-out: LUCIFERASE INFECTION ASSAY - IC50
  IC50: 5.57 µM
  IC90: > 7.41 µM

## COc1ccc(CN2CCN(c3ncc(C(=O)Nc4ccc5c(c4)OCO5)s3)C2=O)cc1
HEPG2TOX_HILL_SLOPE 2.58, HEPG2TOX_R_SQUARED 0.97, PBLUC_HILL_SLOPE 17.4, PBLUC_R_SQUARED 0.0851, read-out: LUCIFERASE INFECTION ASSAY - IC50
  IC50: 3.65 µM
  IC90: 4.14 µM

## Clc1cccc(Cl)c1/C=C/c1nc2ccccc2n1Cc1ccccc1
HEPG2TOX_HILL_SLOPE 4.4, HEPG2TOX_R_SQUARED 0.96, PBLUC_HILL_SLOPE 4.2, PBLUC_R_SQUARED 0.29, read-out: LUCIFERASE INFECTION ASSAY - IC50
  IC50: 5.61 µM
  IC90: > 8.7 µM

## O=C(c1cc(-c2ccccc2)[nH]n1)N1CCN(S(=O)(=O)c2ccccc2)CC1
PBLUC_HILL_SLOPE 0.361, PBLUC_R_SQUARED 0.34, read-out: LUCIFERASE INFECTION ASSAY - IC50
  IC50: 1.07 µM
  IC90: > 10 µM

## N#CC(C(=O)c1ccccc1NC(=O)C(F)(F)F)c1nc(-c2ccc(Cl)cc2)cs1 (centres undefined)
FFLUC_HILL_SLOPE 12.8, FFLUC_R_SQUARED 0.656, read-out: LUCIFERASE INFECTION ASSAY - IC50
  IC50: > 10 µM
  IC90: > 10 µM

## CSc1sc(C(=O)Sc2ccccc2)cc1S(=O)(=O)C(C)C
[1]
  IC50: > 8.86 µM
  IC90: > 8.86 µM

## CN(C)c1ccc(C(c2ccc(OC(F)(F)F)cc2)c2ccc(N(C)C)cc2)cc1
FFLUC_HILL_SLOPE 27.2, FFLUC_R_SQUARED 0.132, HEPG2TOX_HILL_SLOPE 6.02, HEPG2TOX_R_SQUARED 0.417, PBLUC_HILL_SLOPE 10.6, PBLUC_R_SQUARED 0.521, read-out: LUCIFERASE INFECTION ASSAY - IC50
  IC50: 2.89 µM
  IC90: 3.56 µM

## Cc1nc(-c2cccc(NC(=O)c3ccc(OC(F)F)cc3)c2)[nH]c1C
PBLUC_HILL_SLOPE 207, PBLUC_R_SQUARED 0.671, read-out: LUCIFERASE INFECTION ASSAY - IC50
  IC50: 2.66 µM
  IC90: 2.68 µM

## CCc1ccc(NC(=O)c2ccc(S(=O)(=O)N(C)C)cc2)cc1
HEPG2TOX_HILL_SLOPE 5.62, HEPG2TOX_R_SQUARED 0.338, PBLUC_HILL_SLOPE 17.2, PBLUC_R_SQUARED 0.289, read-out: LUCIFERASE INFECTION ASSAY - IC50
  IC50: 9.7 µM
  IC90: > 9.93 µM

## c1ccc(-n2c(SCc3nc(-c4cccs4)no3)nnc2-c2ccc3c(c2)OCO3)cc1
HEPG2TOX_HILL_SLOPE 1.25, HEPG2TOX_R_SQUARED 0.965, PBLUC_HILL_SLOPE 1.25, PBLUC_R_SQUARED 0.656, read-out: LUCIFERASE INFECTION ASSAY - IC50
  IC50: 1.15 µM
  IC90: 6.69 µM

## Cc1ccc(N(CC(=O)Nc2ccc(F)cc2F)C2=NC(=O)CS2)cc1
PBLUC_HILL_SLOPE 3.93, PBLUC_R_SQUARED 0.513, read-out: LUCIFERASE INFECTION ASSAY - IC50
  IC50: 5.41 µM
  IC90: 9.47 µM

## Clc1ccc(-c2cnc3cnc(-c4ccncc4)cn23)cc1
PBLUC_HILL_SLOPE 2.25, PBLUC_R_SQUARED 0.741, read-out: LUCIFERASE INFECTION ASSAY - IC50
  IC50: 1.82 µM
  IC90: 4.84 µM

## O=C1/C(=C\c2cccnc2)SC(=S)N1Cc1ccncc1
FFLUC_HILL_SLOPE 1.57, FFLUC_R_SQUARED 0.87, HEPG2TOX_HILL_SLOPE 6.45, HEPG2TOX_R_SQUARED 0.698, PBLUC_HILL_SLOPE 14.6, PBLUC_R_SQUARED 0.23, read-out: LUCIFERASE INFECTION ASSAY - IC50
  IC50: 10.5 µM
  IC90: > 10.5 µM

## CN(C)c1nc(N)nc(CN(Cc2nc(N)nc(N(C)C)n2)C23CC4CC(CC(C4)C2)C3)n1
HEPG2TOX_HILL_SLOPE 0.693, HEPG2TOX_R_SQUARED 0.937, PBLUC_HILL_SLOPE 2.94, PBLUC_R_SQUARED 0.84, read-out: LUCIFERASE INFECTION ASSAY - IC50
  IC50: 0.0707 µM
  IC90: 0.149 µM

## CC(c1cccc(NC(=O)c2ccccc2)c1)N(C)c1ccc([N+](=O)[O-])cn1 (centres undefined)
HEPG2TOX_HILL_SLOPE 3.15, HEPG2TOX_R_SQUARED 0.897, PBLUC_HILL_SLOPE 11.5, PBLUC_R_SQUARED 0.814, read-out: LUCIFERASE INFECTION ASSAY - IC50
  IC50: 1.08 µM
  IC90: 1.3 µM

## O=C(Nc1ccc(F)c(Cl)c1)Nc1csc(Cc2c(Cl)cccc2Cl)n1
FFLUC_HILL_SLOPE 16.6, FFLUC_R_SQUARED 0.437, PBLUC_HILL_SLOPE 14.1, PBLUC_R_SQUARED 0.179, read-out: LUCIFERASE INFECTION ASSAY - IC50
  IC50: 6.61 µM
  IC90: > 7.66 µM

## CC(C)CCn1c(=O)c2ccccc2n2c(SCCS(=O)(=O)c3ccc(Cl)cc3)nnc12
HEPG2TOX_HILL_SLOPE 1.35, HEPG2TOX_R_SQUARED 0.511, PBLUC_HILL_SLOPE 2.98, PBLUC_R_SQUARED 0.427, read-out: LUCIFERASE INFECTION ASSAY - IC50
  IC50: 7.28 µM
  IC90: > 10 µM

## CC(C)Cn1c(N)c(C(=O)COC(=O)Cn2c(C(F)(F)F)nc3ccccc32)c(=O)n(C)c1=O
[1]
  IC50: > 10 µM
  IC90: > 10 µM

## c1ccc(Cn2cc(-c3cn4c(-c5ccc6ncccc6c5)cnc4cn3)cn2)cc1
[1]
  IC50: > 8.2 µM
  IC90: > 8.2 µM

## CC(=O)Nc1ccc(Sc2cc(C)nc(C(C)C)n2)cc1
PBLUC_HILL_SLOPE 2.86, PBLUC_R_SQUARED 0.342, read-out: LUCIFERASE INFECTION ASSAY - IC50
  IC50: 4.56 µM
  IC90: 9.81 µM

## COc1ccc(-c2cc(CN3C(=O)N(C)C4(CCCCC4)C3=O)on2)cc1
HEPG2TOX_HILL_SLOPE 0.667, HEPG2TOX_R_SQUARED 0.327, read-out: LUCIFERASE INFECTION ASSAY - IC50
  IC50: > 10 µM
  IC90: > 10 µM

## CCCN(C(=O)c1ccccc1CCc1ccccc1)c1nc(-c2ccc(Cl)cc2Cl)cs1
[1]
  IC50: > 10 µM
  IC90: > 10 µM

## O=C(Nc1ccc(OC(F)(F)F)cc1)Sc1ccc(Cl)s1
FFLUC_HILL_SLOPE 30.4, FFLUC_R_SQUARED 0.438, HEPG2TOX_HILL_SLOPE 8.9, HEPG2TOX_R_SQUARED 0.733, PBLUC_HILL_SLOPE 2, PBLUC_R_SQUARED 0.693, read-out: LUCIFERASE INFECTION ASSAY - IC50
  IC50: 3.61 µM
  IC90: > 9.33 µM

## COc1ccc(Sc2ccc([N+](=O)[O-])c3nonc23)cc1
FFLUC_HILL_SLOPE 14.3, FFLUC_R_SQUARED 0.436, HEPG2TOX_HILL_SLOPE 9.62, HEPG2TOX_R_SQUARED 0.82, PBLUC_HILL_SLOPE 22.9, PBLUC_R_SQUARED 0.553, read-out: LUCIFERASE INFECTION ASSAY - IC50
  IC50: 9.76 µM
  IC90: 10.7 µM

## CCC(Nc1nc(C(F)(F)F)nc2ccccc12)c1ccc(Br)cc1 (centres undefined)
PBLUC_HILL_SLOPE 5.54, PBLUC_R_SQUARED 0.0475, read-out: LUCIFERASE INFECTION ASSAY - IC50
  IC50: > 10 µM
  IC90: > 10 µM

## COc1cc(NC(=O)COC(=O)c2c(C)nn(Cc3ccc(Cl)cc3Cl)c2Cl)c(C)cc1[N+](=O)[O-]
FFLUC_HILL_SLOPE 1.94, FFLUC_R_SQUARED 0.846, read-out: LUCIFERASE INFECTION ASSAY - IC50
  IC50: > 10 µM
  IC90: > 10 µM

## COc1cc(CSc2nc3ccccc3c(=O)n2C(C)C)ccc1OC(F)F
HEPG2TOX_HILL_SLOPE 1.32, HEPG2TOX_R_SQUARED 0.932, PBLUC_HILL_SLOPE 1.38, PBLUC_R_SQUARED 0.834, read-out: LUCIFERASE INFECTION ASSAY - IC50
  IC50: 0.81 µM
  IC90: 3.99 µM

## Cc1nc(-c2ccccn2)nc(NCCc2ccccc2)c1Cl
PBLUC_HILL_SLOPE 7.11, PBLUC_R_SQUARED 0.141, read-out: LUCIFERASE INFECTION ASSAY - IC50
  IC50: 3.95 µM
  IC90: 5.38 µM

## Cc1ccc2nc(NC(=O)c3cccc(Cl)c3Cl)c(C(=O)NC3CCCC3)n2c1
[1]
  IC50: > 7.65 µM
  IC90: > 7.65 µM

## Cc1onc(-c2ccc(Cl)cc2Cl)c1-c1csc(N/N=C/c2ccccc2Cl)n1
FFLUC_HILL_SLOPE 8.51, FFLUC_R_SQUARED 0.488, HEPG2TOX_HILL_SLOPE 2.88, HEPG2TOX_R_SQUARED 0.834, read-out: LUCIFERASE INFECTION ASSAY - IC50
  IC50: > 7.12 µM
  IC90: > 7.12 µM

## Cc1ccc2nc(CN3CCN(C(c4ccc(F)cc4)c4ccc(F)cc4)CC3)cc(=O)n2c1
PBLUC_HILL_SLOPE 12.7, PBLUC_R_SQUARED 0.219, read-out: LUCIFERASE INFECTION ASSAY - IC50
  IC50: 3.48 µM
  IC90: 4.14 µM

## CN1CCN(c2ccc(Cl)cc2NC(=O)CCc2nc3ccccc3s2)CC1
[1]
  IC50: > 10 µM
  IC90: > 10 µM

## CC(C(=O)OCC(=O)Nc1ccc(Cl)c2c1C(=O)c1ccccc1C2=O)N1C(=O)c2ccccc2C1=O (centres undefined)
[1]
  IC50: > 10 µM
  IC90: > 10 µM

## COc1ccc(-c2cnc3cnc(-c4cccc(C)c4C)cn23)cn1
PBLUC_HILL_SLOPE 7.63, PBLUC_R_SQUARED 0.171, read-out: LUCIFERASE INFECTION ASSAY - IC50
  IC50: 8.65 µM
  IC90: > 9.99 µM

## Cc1cccc(C(=O)Nc2nc3ccccn3c2C(=O)NC2CCCC2)c1
HEPG2TOX_HILL_SLOPE 8.83, HEPG2TOX_R_SQUARED 0.45, PBLUC_HILL_SLOPE 2.41, PBLUC_R_SQUARED 0.415, read-out: LUCIFERASE INFECTION ASSAY - IC50
  IC50: 1.88 µM
  IC90: 4.69 µM

## COc1cc2c(cc1OC)C(c1ccccc1Cl)N(C(=O)c1sc3ccccc3c1Cl)CC2 (centres undefined)
PBLUC_HILL_SLOPE 2.93, PBLUC_R_SQUARED 0.186, read-out: LUCIFERASE INFECTION ASSAY - IC50
  IC50: 4.9 µM
  IC90: > 6.62 µM
